The record followed here is patent US20230131535A1, “ARYLMETHYLENE AROMATIC COMPOUNDS AS Kv1.3 POTASSIUM SHAKER CHANNEL BLOCKERS” (D. E. Shaw Research, LLC, priority 2019, published 2023).

Like-named read-outs stand apart in the source and are kept apart here. Where only a bound is given, the exact number is not on record here.

In one test the target is T1, Kv1.3 potassium channel (Homo sapiens, UniProt P22001).
T1 construct: expressed in transfected cells
The experiment in a line: Kv1.3 potassium channel blocker activity, automated whole-cell patch clamp (Patchliner). Format: cell-based. The following applies: CHO-K1 cells stably expressing Kv1.3, whole cell current, pulses -90 mV to +40 mV, read-out: Kv1.3_IC50. How it is done: Example 67. Evaluation of Kv1.3 Potassium Channel Blocker Activities
The assay described below is used to evaluate the disclosed compound's activities as Kv1.3 potassium channel blockers.
CHO-K1 cells stably expressing Kv1.3 were grown in DMEM containing 10% heat-inactivated FBS, 1 mM Sodium Pyruvate, 2 mM L-Glutamine and G418 (500 μg/ml). Cells were grown in culture flasks at 37° C. in a 5% CO2-humidified incubator.
(§1) The cells were bathed in an extracellular solution containing 140 mM NaCl, 4 mM KCl, 2 mM CaCl2), 1 mM MgCl2, 5 mM Glucose, 10 mM HEPES; pH adjusted to 7.4 with NaOH; 295-305 mOsm. The internal solution contained 50 mM KCl, 10 mM NaCl, 60 mM KF, 20 mM EGTA, 10 mM HEPES; pH adjusted to 7.2 with KOH; 285 mOsm. All compounds were dissolved in DMSO at 30 mM. Compound stock solutions were freshly diluted with external solution to concentrations of 30 nM, 100 nM, 300 nM, 1 μM, 3 μM, 10 μM, 30 μM and 100 μM. The highest content of DMSO (0.3%) was present in 100 μM.
The currents were evoked by applying 100 ms depolarizing pulses from −90 mV (holding potential) to +40 mV were applied with 0.1 Hz frequency. Control (compound-free) and compound pulse trains for each compound concentration applied contained 20 pulses. 10 second breaks were used between pulse trains (see Table 4 below).
Whole cell current recordings and compound application were enabled by means of an automated patch clamp platform Patchliner (Nanion Technologies GmbH). EPC 10 patch clamp amplifier (HIEKA Elektronik Dr. Schulze GmbH) along with Patchmaster software (HIEKA Elektronik Dr. Schulze GmbH) was used for data acquisition. Data were sampled at 10 kHz without filtering. Passive leak currents were subtracted online using a P/4 procedure (HEKA Elektronik Dr. Schulze GmbH). Increasing compound concentrations were applied consecutively to the same cell without washouts in between. Total compound incubation time before the next pulse train was not longer than 10 seconds. Peak current inhibition was observed during compound equilibration.
(§2) AUC and peak values were obtained with Patchmaster (HEKA Elektronik Dr. Schulze GmbH). To determine IC50, the last single pulse in the pulse train corresponding to a given compound concentration was used. Obtained AUC and peak values in the presence of compound were normalized to control values in the absence of compound. Using Origin (OridinLab), IC50 was derived from data fit to Hill equation: Icompound/Icontrol=(100−A)/(1+([compound]/IC50)nH)+A, where IC50 value is the concentration at which current inhibition is half-maximal, [compound] is the applied compound concentration, A is the fraction of current that is not blocked and nH is the Hill coefficient.

For the next test, the target named is T2, hERG channel (Homo sapiens, UniProt Q12809).
T2 construct: expressed in transfected cells
The experiment in a line: hERG electrophysiology, automated whole-cell patch clamp (Patchliner). It is filed as cell-based. To be noted: Table 6; CHO-K1 cells stably expressing hERG; whole cell current, tail current protocol; read-out: hERG_IC50. On the procedure:
Example 68. Evaluation of hERG Activities
This assay is used to evaluate the disclosed compounds' inhibition activities against the hERG channel.
CHO-K1 cells stably expressing hERG were grown in Ham's F-12 Medium with Glutamine containing 10% heat-inactivated FBS, 1% Penicillin/Streptomycin, Hygromycin (100 μg/ml) and G418 (100 μg/ml). Cells were grown in culture flasks at 37° C. in a 5% CO2-humidified incubator.
as §1
The voltage protocol (see Table 5) was designed to simulate voltage changes during a cardiac action potential with a 300 ms depolarization to +20 mV (analogous to the plateau phase of the cardiac action potential), a repolarization for 300 ms to −50 mV (inducing a tail current) and a final step to the holding potential of −80 mV. The pulse frequency was 0.3 Hz. Control (compound-free) and compound pulse trains for each compound concentration applied contained 70 pulses.
Whole cell current recordings and compound application were enabled by means of an automated patch clamp platform Patchliner (Nanion). EPC 10 patch clamp amplifier (HEKA) along with Patchmaster software (HEKA Elektronik Dr. Schulze GmbH) was used for data acquisition. Data were sampled at 10 kHz without filtering. Increasing compound concentrations were applied consecutively to the same cell without washouts in between.
as §2, with “PEAK” for “peak”, “IC50” for “IC50,”, “IC50” for “IC50 value”

T1 sequence (P22001 whole entry): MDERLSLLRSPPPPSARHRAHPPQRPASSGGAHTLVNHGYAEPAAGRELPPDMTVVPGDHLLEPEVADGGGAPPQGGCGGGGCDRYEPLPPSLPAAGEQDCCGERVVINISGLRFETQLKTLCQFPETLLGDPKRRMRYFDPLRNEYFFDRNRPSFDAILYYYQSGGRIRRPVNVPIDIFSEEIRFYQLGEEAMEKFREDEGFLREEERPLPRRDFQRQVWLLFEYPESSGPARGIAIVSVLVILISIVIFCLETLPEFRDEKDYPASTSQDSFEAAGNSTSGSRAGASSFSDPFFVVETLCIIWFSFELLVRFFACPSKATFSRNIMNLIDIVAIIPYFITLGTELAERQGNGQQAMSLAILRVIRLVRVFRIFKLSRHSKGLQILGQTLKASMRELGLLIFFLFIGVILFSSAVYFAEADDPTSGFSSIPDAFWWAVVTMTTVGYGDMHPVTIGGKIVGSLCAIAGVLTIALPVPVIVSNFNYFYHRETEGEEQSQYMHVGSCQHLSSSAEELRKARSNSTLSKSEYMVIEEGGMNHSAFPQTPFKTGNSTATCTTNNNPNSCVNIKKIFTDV
T2 sequence (Q12809 whole entry): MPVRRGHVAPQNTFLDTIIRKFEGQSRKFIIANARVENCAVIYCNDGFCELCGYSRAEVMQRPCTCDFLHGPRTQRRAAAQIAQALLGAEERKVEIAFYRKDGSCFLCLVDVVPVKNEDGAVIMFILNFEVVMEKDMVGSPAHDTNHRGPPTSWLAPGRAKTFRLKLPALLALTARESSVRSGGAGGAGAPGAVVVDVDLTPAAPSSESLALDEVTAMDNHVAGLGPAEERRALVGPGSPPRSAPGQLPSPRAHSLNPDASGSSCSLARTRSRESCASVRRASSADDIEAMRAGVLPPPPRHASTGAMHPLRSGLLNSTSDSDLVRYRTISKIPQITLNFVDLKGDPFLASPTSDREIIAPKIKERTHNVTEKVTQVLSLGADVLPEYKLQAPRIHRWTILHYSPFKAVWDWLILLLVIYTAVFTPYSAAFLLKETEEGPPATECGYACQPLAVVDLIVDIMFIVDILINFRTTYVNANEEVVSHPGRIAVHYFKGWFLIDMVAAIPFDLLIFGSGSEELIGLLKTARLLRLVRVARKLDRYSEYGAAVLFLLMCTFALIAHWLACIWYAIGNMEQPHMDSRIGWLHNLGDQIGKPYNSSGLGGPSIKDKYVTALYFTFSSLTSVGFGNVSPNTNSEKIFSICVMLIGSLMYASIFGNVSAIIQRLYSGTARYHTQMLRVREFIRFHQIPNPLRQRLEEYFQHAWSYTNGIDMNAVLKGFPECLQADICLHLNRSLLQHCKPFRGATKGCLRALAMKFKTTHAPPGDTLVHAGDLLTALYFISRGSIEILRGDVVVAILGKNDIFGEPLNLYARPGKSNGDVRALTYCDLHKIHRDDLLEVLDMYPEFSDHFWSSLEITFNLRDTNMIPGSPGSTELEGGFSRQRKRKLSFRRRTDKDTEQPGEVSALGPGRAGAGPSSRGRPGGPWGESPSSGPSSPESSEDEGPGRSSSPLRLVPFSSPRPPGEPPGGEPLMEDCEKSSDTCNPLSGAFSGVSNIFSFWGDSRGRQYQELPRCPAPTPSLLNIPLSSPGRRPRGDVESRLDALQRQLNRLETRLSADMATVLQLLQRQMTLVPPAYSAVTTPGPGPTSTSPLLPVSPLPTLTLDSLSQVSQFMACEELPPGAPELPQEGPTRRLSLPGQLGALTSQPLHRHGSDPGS

On to `Oc1ccc(Cl)c(Cl)c1C(O)c1ccncc1` (single isomer, unassigned) [Compound 34, 3,4-dichloro-2-(hydroxy(pyridin-4-yl)methyl)phenol], for which the IC50 on Kv1.3 potassium channel (Table 6) was below 30 µM; on hERG channel it was above 30 µM.
`Oc1ccc(Cl)c(Cl)c1C(O)c1ccncc1` (single isomer, unassigned) [Compound 37, 3,4-dichloro-2-(hydroxy(pyridin-4-yl)methyl)phenol]: the IC50 at Kv1.3 potassium channel (Table 6) is below 1 µM; on hERG channel, above 30 µM.
The corresponding values for `CC(=O)NC(c1ccncc1)c1c(O)ccc(Cl)c1Cl` (single isomer, unassigned) [Compound 38, N-((2,3-dichloro-6-hydroxyphenyl)(pyridin-4-yl)methyl)acetamide] are below 30 µM and above 30 µM.
For `CC(=O)NC(c1ccncc1)c1c(O)ccc(Cl)c1Cl` (single isomer, unassigned) [Compound 41, N-((2,3-dichloro-6-hydroxyphenyl)(pyridin-4-yl)methyl)acetamide], the IC50 on Kv1.3 potassium channel (Table 6) is below 1 µM; on hERG channel it was above 30 µM.
Consider `Nc1cc(C(O)c2c(O)ccc(Cl)c2Cl)ccn1` (single isomer, unassigned) [Compound 45, 2-[(2-aminopyridin-4-yl)(hydroxy)methyl]-3,4-dichlorophenol], for which the IC50 at Kv1.3 potassium channel (Table 6) is below 1 µM; at hERG channel it was above 30 µM.
For `Cc1cnccc1C(O)c1c(O)ccc(Cl)c1Cl` (single isomer, unassigned) [Compound 46, 3,4-dichloro-2-[hydroxy(3-methylpyridin-4-yl)methyl]phenol], in that order: below 1 µM and above 30 µM.
Regarding `COCC(=O)NC(c1ccncc1)c1c(O)ccc(Cl)c1Cl` (stereo not shown) [Compound 63, N-[(2,3-dichloro-6-hydroxyphenyl)(pyridin-4-yl)methyl]-2-methoxyacetamide], the IC50 on Kv1.3 potassium channel (Table 6) is below 10 µM.
On to `CC(C)C(=O)NC(c1ccncc1)c1c(O)ccc(Cl)c1Cl` (stereo not shown) [Compound 69, N-[(2,3-dichloro-6-hydroxyphenyl)(pyridin-4-yl)methyl]-2-methylpropanamide], for which the IC50 on Kv1.3 potassium channel (Table 6) was below 30 µM.
Turning to `COc1ccc(Cl)c(Cl)c1C(N)c1ccncc1` (stereo not shown) [Compound 70, 1-(2,3-dichloro-6-methoxyphenyl)-1-(pyridin-4-yl)methanamine], at Kv1.3 potassium channel (Table 6), the IC50 is below 30 µM.
Take `CN(C(=O)C1CNC1)C(c1ccncc1)c1c(O)ccc(Cl)c1Cl` (stereo not shown) [Compound 71, N-[(2,3-dichloro-6-hydroxyphenyl)(pyridin-4-yl)methyl]-N-methylazetidine-3-carboxamide]: the IC50 on Kv1.3 potassium channel (Table 6) was below 30 µM.
Regarding `Cn1cc(C(c2ccncc2)c2c(O)ccc(Cl)c2Cl)cn1` (stereo not shown) [Compound 74, 3,4-dichloro-2-[(1-methyl-1H-pyrazol-4-yl)(pyridin-4-yl)methyl]phenol], the IC50 at Kv1.3 potassium channel (Table 6) is below 30 µM.
Consider `C[C@@H](NC(=O)C1CNC1)c1c(O)ccc(Cl)c1Cl` [Compound 77, N-[(1R)-1-(2,3-dichloro-6-hydroxyphenyl)ethyl]azetidine-3-carboxamide], for which the IC50 at Kv1.3 potassium channel (Table 7) was below 1 µM.
In the case of `C[C@@H](NC(=O)[C@@H]1CCCNC1)c1c(O)ccc(Cl)c1Cl` [Compound 79, (3R)-N-[(1R)-1-(2,3-dichloro-6-hydroxyphenyl)ethyl]piperidine-3-carboxamide], the IC50 at Kv1.3 potassium channel (Table 7) was below 10 µM.
Same read-out and setting: the figure for `C[C@H](NC(=O)[C@H]1CCCNC1)c1c(O)ccc(Cl)c1Cl` [Compound 80, (3S)-N-[(1S)-1-(2,3-dichloro-6-hydroxyphenyl)ethyl]piperidine-3-carboxamide] is below 10 µM.
Regarding `C[C@H](NC(=O)[C@@H]1CCCNC1)c1c(O)ccc(Cl)c1Cl` [Compound 81, (3R)-N-[(1S)-1-(2,3-dichloro-6-hydroxyphenyl)ethyl]piperidine-3-carboxamide], at Kv1.3 potassium channel (Table 7), the IC50 was below 1 µM.
Same read-out and setting: to `Cc1cc(O)c([C@H](C)NC(=O)C2CNC2)cc1Cl` [Compound 82, N-[(1S)-1-(5-chloro-2-hydroxy-4-methylphenyl)ethyl]azetidine-3-carboxamide] belongs below 10 µM; to `C[C@H](NC(=O)CO)c1c(O)ccc(Cl)c1Cl` [Compound 83, N-[(1S)-1-(2,3-dichloro-6-hydroxyphenyl)ethyl]-2-hydroxyacetamide], below 10 µM; to `C[C@H](NC(=O)[C@H](O)CO)c1c(O)ccc(Cl)c1Cl` [Compound 84, (2R)-N-[(1S)-1-(2,3-dichloro-6-hydroxyphenyl)ethyl]-2,3-dihydroxypropan-amide], below 10 µM.
Consider `C[C@H](NC(=O)[C@@H](O)CO)c1c(O)ccc(Cl)c1Cl` [Compound 85, (2S)-N-[(1S)-1-(2,3-dichloro-6-hydroxyphenyl)ethyl]-2,3-dihydroxypropan-amide], for which the IC50 at Kv1.3 potassium channel (Table 7) is below 10 µM.
Take `C[C@H](NC(=O)C1CNC1)c1cc(Cl)c(Cl)cc1O` [Compound 86, N-[(1S)-1-(4,5-dichloro-2-hydroxyphenyl)ethyl]azetidine-3-carboxamide]: the IC50 at Kv1.3 potassium channel (Table 7) was below 10 µM.
As to `C[C@H](NC(=O)C1(O)CNC1)c1c(O)ccc(Cl)c1Cl` [Compound 87], the IC50 on Kv1.3 potassium channel (Table 7) is below 10 µM.
Still for that read-out and setting: to `C[C@H](NC(=O)C1CN(C(=O)CO)C1)c1c(O)ccc(Cl)c1Cl` [Compound 88, N-[(1S)-1-(2,3-dichloro-6-hydroxyphenyl)ethyl]-1-(2-hydroxyacetyl) azetidine-3-carboxamide] belongs below 10 µM.
Regarding `C[C@H](NC(=O)C1CCNCC1)c1c(O)ccc(Cl)c1Cl` [Compound 90, N-[(1S)-1-(2,3-dichloro-6-hydroxyphenyl)ethyl]piperidine-4-carboxamide], the IC50 at Kv1.3 potassium channel (Table 7) was below 1 µM.
Turning to `CC(NC(=O)C1CNCCO1)c1c(O)ccc(Cl)c1Cl` (stereo not shown) [Compound 92, N-[1-(2,3-dichloro-6-hydroxyphenyl)ethyl]morpholine-2-carboxamide], the IC50 at Kv1.3 potassium channel (Table 7) is below 10 µM.
Same read-out and setting: to `C[C@H](NC(=O)[C@H]1CCNC1)c1c(O)ccc(Cl)c1Cl` [Compound 93, (3S)-N-[(1S)-1-(2,3-dichloro-6-hydroxyphenyl)ethyl]pyrrolidine-3-carboxamide] belongs below 1 µM; to `Cc1cc(O)c([C@@H](N)CNC(=O)C2CNC2)cc1Cl` [Compound 95, N-[(2R)-2-amino-2-(5-chloro-2-hydroxy-4-methylphenyl)ethyl] azetidine-3-carboxamide], below 10 µM.
On to `Cc1cc(O)c(C(N)CNC(=O)CO)cc1Cl` (stereo not shown) [Compound 96, N-[2-amino-2-(5-chloro-2-hydroxy-4-methylphenyl)ethyl]-hydroxyacetamide], for which the IC50 at Kv1.3 potassium channel (Table 7) is below 10 µM.
On the same count and under the same terms, to `Cc1cc(O)c(C(N)CC(=O)NC2CNC2)cc1Cl` (stereo not shown) [Compound 97, 3-amino-N-(azetidin-3-yl)-3-(5-chloro-2-hydroxy-4-methylphenyl)propenamide] belongs below 1 µM.
